Experimental data taken from publication PMC6661771, “Indole hybridized diazenyl derivatives: synthesis, antimicrobial activity, cytotoxicity evaluation and docking studies” (BMC Chemistry, 2019).
Converted amounts (≈) assume the structure as drawn. Where two headings read alike, the source gives them in different places.

Tests used:
HCT 116 = test: MTT cell proliferation assay; assay type: cell-based; conditions: Homo sapiens, HCT-116, 48 h, HCT 116 colon cancer, 48 h of drug treatment
Experimental: (§1) The cell lines used in study were initially procured from the National Centre for Cell Sciences (NCCS), Pune, India, and maintained in DMEM. The cell line was cultured in 25 cm^2 tissue culture flask with DMEM supplemented with 10% FBS, sodium bicarbonate, L-glutamine, and antibiotic solution containing: streptomycin (100 μg/ml), penicillin (100 U/ml). Cultured cell line was kept at 37 °C in a humidified 5% CO2 incubator (VWR, USA).
(§2) The compounds found to have good antimicrobial potential were then screened for their cytotoxicity using MTT […]) assay. 1 × 10^4 cells/well were seeded in 100 µl DMEM/MEM, supplemented with 10% FBS in each well of 96-well microculture plates and incubated for 24 h at 37 °C in a CO2 incubator. After incubation, all the prepared/synthesized compounds were added to the cells at 10, 25, 50 and 100 µg concentrations for 48 h. After 48 h of drug treatment, 10 µl MTT (5 mg/ml) was added to each well and the plates were further incubated for 4 h. Then the supernatant from each well was carefully removed, formazan crystals were dissolved in 100 µl of DMSO and absorbance at 570 nm wavelength was recorded on an ELISA reader. The IC50 value was calculated using the linear regression equation i.e. Y = Mx + C. Here, Y = 50, M and C values were derived from the viability graph. The assay was performed in triplicate.

K562 = test: MTT cell proliferation assay; assay type: cell-based; conditions: Homo sapiens, K562 leukemia, 48 h of drug treatment
Experimental: as §1, §2

MDA MB 231 = test: MTT cell proliferation assay; assay type: cell-based; conditions: MDA MB 231 breast cancer, 48 h of drug treatment
Experimental: as §1, §2

K. pneumonia [1] = test: Minimum bactericidal concentration (MBC); assay type: cell-based; conditions: Klebsiella pneumoniae
S. aureus [2] = test: Minimum bactericidal concentration (MBC); assay type: cell-based; conditions: Staphylococcus aureus
B. subtilis [3] = test: MIC by tube dilution method; assay type: cell-based; conditions: Bacillus subtilis, 24 h at 37 °C, read-out: MIC
A. niger [4] = test: MIC by tube dilution method; assay type: cell-based; conditions: Aspergillus niger, 168 h, 7 days at 25 °C, read-out: MIC
E. coli [5] = test: Minimum bactericidal concentration (MBC); assay type: cell-based; conditions: Escherichia coli
E. coli [6] = test: MIC by tube dilution method; assay type: cell-based; conditions: 24 h at 37 °C
S. aureus [7] = test: MIC by tube dilution method; assay type: cell-based; conditions: Staphylococcus aureus, 24 h at 37 °C, read-out: MIC
A. niger [8] = test: Minimum fungicidal concentration (MFC); assay type: cell-based; conditions: Aspergillus niger, read-out: MBC/MFC
A. fumigatus [9] = test: MIC by tube dilution method; assay type: cell-based; conditions: Aspergillus fumigatus, 168 h, 7 days at 25 °C, read-out: MIC
B. subtilis [10] = test: Minimum bactericidal concentration (MBC); assay type: cell-based; conditions: Bacillus subtilis
S. enterica [11] = test: MIC by tube dilution method; assay type: cell-based; conditions: Salmonella enterica, 24 h, 24 h at 37 °C, read-out: MIC
K. pneumonia [12] = test: MIC by tube dilution method; assay type: cell-based; conditions: 24 h at 37 °C
A. fumigatus [13] = test: Minimum fungicidal concentration (MFC); assay type: cell-based; conditions: Aspergillus fumigatus, read-out: MBC/MFC
S. enterica [14] = test: Minimum bactericidal concentration (MBC); assay type: cell-based; conditions: Salmonella enterica, read-out: MBC/MFC
Experimental: After MIC assessment, the indole derivatives (DS1–DS21), were additionally evaluated for MBC and MFC values. […] The 10–15 ml of nutrient agar and Sabouraud dextrose agar was added to the petri plates for bacterial and fungal samples respectively with gentle shaking of plates in order to mix the culture throughout the media. Allowed the media to solidify. The petri plates were then incubated for the predefined time and temperature as referenced already for bacterial and fungal cultures respectively. The plates were then investigated visually for the development of microbial growth. The MBC and MFC were stated as the minimum concentration of the compounds in aliquots showing no visual growth after incubation.

HEK-293 = test: MTT cell proliferation assay, normal cells; assay type: cell-based; conditions: Homo sapiens, HEK293, HEK-293 normal cells, 48 h of drug treatment
Experimental: as §1, §2

[15] = Homo sapiens, MDA-MB-231, 48 h, read-out: IC50
[16] = Escherichia coli, 24 h, read-out: MIC
[17] = Klebsiella pneumoniae, 24 h, read-out: MIC

Compound	IC50 (HCT 116) [µg/mL]	IC50 (K562) [µg/mL]	IC50 (MDA MB 231; [15]) [µg/mL]	IC50 (MDA MB 231) [µg/mL]	MBC (K. pneumonia [1]) [µg/mL]	MBC (S. aureus [2]) [µg/mL]	MIC (B. subtilis [3]) [µg/mL]	MIC (A. niger [4]) [µg/mL]	MBC (E. coli [5]) [µg/mL]	MIC (E. coli [6]; [16]) [µg/mL]	melting point [°C]	MIC (S. aureus [7]) [µg/mL]	MFC (A. niger [8]) [µg/mL]	MIC (A. fumigatus [9]) [µg/mL]	MBC (B. subtilis [10]) [µg/mL]	MIC (S. enterica [11]) [µg/mL]	MIC (K. pneumonia [12]; [17]) [µg/mL]	MFC (A. fumigatus [13]) [µg/mL]	IC50 (HEK-293) [µg/mL]	MBC (S. enterica [14]; S. enterica, MBC) [µg/mL]	further results
COc1cccc2c1C(=O)c1c(O)c3c(c(O)c1C2=O)C[C@@](O)(C(=O)CO)C[C@@H]3O[C@H]1C[C@H](N)[C@H](O)[C@H](C)O1 [DOX, doxorubicin, reference compound]	3.37 ± 0.37 (≈ 6.2 µM)	2.62 ± 0.65 (≈ 4.82 µM)	3 (≈ 5.52 µM)	3.08 ± 0.95 (≈ 5.67 µM)	–	–	–	–	–	–	–	–	–	–	–	–	–	–	–	–	–
CCOC(=O)c1c(/N=C(/C)c2ccc(/N=N\c3c[nH]c4ccccc34)cc2)sc2c1CCCC2 [DS-2, Ethyl 2-((Z)-(1-(4-((Z)-(1H-indol-3-yl)diazenyl)phenyl)ethylidene)amino)-4,5,6,7-tetrahydrobenzo[b]thiophene-3-carboxylate]	117 ± 4.28 (≈ 248 µM)	140 ± 4.4 (≈ 298 µM)	57.6 ± 3.68 (≈ 122 µM)	–	62.5 (≈ 133 µM)	125 (≈ 266 µM)	31.2 (≈ 66.4 µM)	62.5 (≈ 133 µM)	16.2 (≈ 34.5 µM)	15.6 (≈ 33.2 µM)	260 to 265	62.5 (≈ 133 µM)	125 (≈ 266 µM)	15.6 (≈ 33.2 µM)	125 (≈ 266 µM)	15.6 (≈ 33.2 µM)	31.2 (≈ 66.4 µM)	62.5 (≈ 133 µM)	–	–	MBC (S. enterica [14]): 15.6 µg/mL (≈ 33.2 µM)
C/C(=N/c1c(C)n(C)n(-c2ccccc2)c1=O)c1ccc(/N=N\c2c[nH]c3ccc([N+](=O)[O-])cc23)cc1 [DS-6, 1,5-Dimethyl-4-((Z)-(1-(4-((Z)-(5-nitro-1H-indol-3-yl)diazenyl)phenyl)ethylidene)amino)-2-phenyl-1H-pyrazol-3(2H)-one]	139 ± 4.29 (≈ 282 µM)	188 ± 1.94 (≈ 380 µM)	119 ± 1.92 (≈ 241 µM)	–	–	31.2 (≈ 63.3 µM)	31.2 (≈ 63.3 µM)	62.5 (≈ 127 µM)	3.9 to 7.81 (≈ 7.9 to 15.8 µM)	1.95 (≈ 3.95 µM)	170 to 175	31.2 (≈ 63.3 µM)	125 (≈ 253 µM)	31.2 (≈ 63.3 µM)	62.5 (≈ 127 µM)	31.2 (≈ 63.3 µM)	7.81 (≈ 15.8 µM)	125 (≈ 253 µM)	257.8 ± 0.57 (≈ 522 µM)	31.2 (≈ 63.3 µM)	–
C/C(=N/c1ccc(S(=O)(=O)Nc2ccccn2)cc1)c1ccc(/N=N\c2c[nH]c3ccccc23)cc1 [DS-11, 4-((Z)-(1-(4-((Z)-(1H-Indol-3-yl)diazenyl)phenyl)ethylidene)amino)-N-(pyridin-2-yl)benzenesulfonamide]	–	–	–	–	31.2 (≈ 63.2 µM)	62.5 (≈ 126 µM)	31.2 (≈ 63.2 µM)	125 (≈ 253 µM)	62.5 (≈ 126 µM)	3.9 (≈ 7.89 µM)	135 to 140	31.2 (≈ 63.2 µM)	125 (≈ 253 µM)	62.5 (≈ 126 µM)	125 (≈ 253 µM)	62.5 (≈ 126 µM)	15.6 (≈ 31.6 µM)	125 (≈ 253 µM)	–	125 (≈ 253 µM)	–
C/C(=N/c1ccc(C(=O)O)cc1)c1ccc(/N=N\c2c[nH]c3ccccc23)cc1 [DS-14, 4-((Z)-(1-(4-((Z)-(1H-Indol-3-yl)diazenyl)phenyl)ethylidene)amino)benzoic acid]	–	112 ± 3.64 (≈ 294 µM)	19 to 65 (≈ 49.7 to 170 µM)	19.10 ± 1.43 (≈ 49.9 µM)	3.9 to 7.81 (≈ 10.2 to 20.4 µM)	62.5 (≈ 163 µM)	31.2 (≈ 81.7 µM)	62.5 (≈ 163 µM)	–	1.95 to 3.9 (≈ 5.1 to 10.2 µM)	205 to 210	62.5 (≈ 163 µM)	125 (≈ 327 µM)	31.2 (≈ 81.7 µM)	62.5 (≈ 163 µM)	1.95 to 3.9 (≈ 5.1 to 10.2 µM)	1.95 to 3.9 (≈ 5.1 to 10.2 µM)	125 (≈ 327 µM)	244 ± 3.78 (≈ 638 µM)	7.81 (≈ 20.4 µM)	MIC (E. coli [6]): 3.90 µg/mL (≈ 10.2 µM); MIC (K. pneumonia [12]): 1.95 µg/mL (≈ 5.1 µM)
CC(=O)NS(=O)(=O)c1ccc(/N=C(/C)c2ccc(/N=N\c3c[nH]c4ccc([N+](=O)[O-])cc34)cc2)cc1 [DS-15, N-((4-((Z)-(1-(4-((Z)-(5-Nitro-1H-indol-3-yl)diazenyl)phenyl)ethylidene)amino)phenyl)sulfonyl)acetamide]	–	–	–	–	31.2 (≈ 61.9 µM)	31.2 (≈ 61.9 µM)	31.2 (≈ 61.9 µM)	125 (≈ 248 µM)	125 (≈ 248 µM)	15.6 (≈ 31 µM)	110 to 115	125 (≈ 248 µM)	125 (≈ 248 µM)	62.5 (≈ 124 µM)	62.5 (≈ 124 µM)	31.2 (≈ 61.9 µM)	3.9 (≈ 7.73 µM)	125 (≈ 248 µM)	–	31.2 (≈ 61.9 µM)	–
C/C(=N/c1ccc(F)cc1)c1ccc(/N=N\c2c[nH]c3ccc([N+](=O)[O-])cc23)cc1 [DS-16, (Z)-4-Fluoro-N-(1-(4-((Z)-(5-nitro-1H-indol-3-yl)diazenyl)phenyl)ethylidene)aniline]	–	–	–	–	31.2 (≈ 77.9 µM)	125 (≈ 311 µM)	31.2 (≈ 77.9 µM)	62.5 (≈ 156 µM)	62.5 (≈ 156 µM)	15.6 (≈ 38.9 µM)	150 to 152	62.5 (≈ 156 µM)	125 (≈ 311 µM)	31.2 (≈ 77.9 µM)	125 (≈ 311 µM)	62.5 (≈ 156 µM)	7.81 (≈ 19.5 µM)	125 (≈ 311 µM)	–	62.5 (≈ 156 µM)	–
C/C(=N/c1ncccn1)c1ccc(/N=N\c2c[nH]c3ccccc23)cc1 [DS-17, (Z)-N-(1-(4-((Z)-(1H-Indol-3-yl)diazenyl)phenyl)ethylidene)pyrimidin-2-amine]	–	–	–	–	15.6 (≈ 45.9 µM)	62.5 (≈ 184 µM)	125 (≈ 367 µM)	62.5 (≈ 184 µM)	15.6 (≈ 45.9 µM)	3.9 (≈ 11.5 µM)	275 to 280	62.5 (≈ 184 µM)	125 (≈ 367 µM)	31.2 (≈ 91.8 µM)	62.5 (≈ 184 µM)	62.5 (≈ 184 µM)	7.81 (≈ 22.9 µM)	125 (≈ 367 µM)	–	62.5 (≈ 184 µM)	–
C/C(=N/CCNc1cccc2ccccc12)c1ccc(/N=N\c2c[nH]c3ccccc23)cc1 [DS-20, (Z)-N1-(1-(4-((Z)-(1H-Indol-3-yl)diazenyl)phenyl)ethylidene)-N2-(naphthalen-1-yl)ethane-1,2-diamine]	–	136 ± 4.74 (≈ 315 µM)	19 to 65 (≈ 44 to 151 µM)	20.95 ± 1.93 (≈ 48.5 µM)	15.6 (≈ 36.2 µM)	62.5 (≈ 145 µM)	125 (≈ 290 µM)	62.5 (≈ 145 µM)	–	1.95 (≈ 4.52 µM)	110 to 115	125 (≈ 290 µM)	125 (≈ 290 µM)	62.5 (≈ 145 µM)	125 (≈ 290 µM)	15.6 (≈ 36.2 µM)	3.9 (≈ 9.04 µM)	125 (≈ 290 µM)	233 ± 4.68 (≈ 539 µM)	31.2 (≈ 72.4 µM)	–
C/C(=N/c1nc2ccccc2s1)c1ccc(/N=N\c2c[nH]c3ccc([N+](=O)[O-])cc23)cc1 [DS-21, (Z)-N-(1-(4-((Z)-(5-Nitro-1H-indol-3-yl)diazenyl)phenyl)ethylidene)benzo[d]thiazol-2-amine]	125 ± 1.33 (≈ 283 µM)	158 ± 3.73 (≈ 359 µM)	49.3 ± 4.15 (≈ 112 µM)	–	–	62.5 (≈ 142 µM)	31.2 (≈ 70.9 µM)	125 (≈ 284 µM)	–	3.9 (≈ 8.85 µM)	130 to 135	62.5 (≈ 142 µM)	125 (≈ 284 µM)	125 (≈ 284 µM)	62.5 (≈ 142 µM)	31.2 (≈ 70.9 µM)	3.9 (≈ 8.85 µM)	125 (≈ 284 µM)	142 ± 3.25 (≈ 322 µM)	31.2 (≈ 70.9 µM)	–
